Data on 18 molecules can be found in patent US7700560B2 (University of Maryland, Baltimore County, priority 2003, dated 2010).

Read-outs that look alike come from different tables or passages of the source.

The target of data set [1] is T1, human GlxI (Homo sapiens, UniProt Q04760).
T1 construct: hGlxI from human erythrocytes; from tissue; host or cells: human erythrocytes
T1 sequence (Q04760 2-184 limits assumed): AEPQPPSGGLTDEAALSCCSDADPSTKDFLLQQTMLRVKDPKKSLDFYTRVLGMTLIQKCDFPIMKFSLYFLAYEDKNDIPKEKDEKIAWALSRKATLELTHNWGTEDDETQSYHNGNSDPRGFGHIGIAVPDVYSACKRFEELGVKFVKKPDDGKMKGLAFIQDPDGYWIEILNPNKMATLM
As to the kind of experiment: Irreversible inactivation kinetics of human GlxI. It is filed as biochemical. As for the experimental part: Incubation mixtures of enzyme (10 units/ml) and known concentrations of inactivator in phosphate buffer were separately incubated in plastic bullet tubes maintained at 25° C. in a water bath. Aliquots were removed, diluted into a quartz cuvette containing one ml GSH-methylglyoxal-thiohemiacetal, and the rate of product formation (ΔOD (240)) monitored as a function of time. From the initial rate of product formation, the activity of the enzyme was calculated. The slope of a plot of in (fraction of enzyme activity remaining) versus time gives the apparent first-order rate constant (kinact) for inactivation of hGlxI. A plot of kinact versus inactivator concentration (FIG. 7.) gives the dissociation constant (Kd and the maximum value of kinact).

Data set [2] concerns DMS114 lung and DU145 prostate xenografts. Particulars: cited from earlier work.
Data set [3] deals with murine leukemia L1210 cells. Particulars: cited from earlier work; for IC50: after 72 hours of incubation, diethyl ester prodrugs, read-out: IC50, growth of L1210 cells.
The target of data set [4] is T2, bovine liver GlxII (Bos taurus, UniProt Q3B7M2).
T2 construct: yeast GlxI (yGlxI) and bovine liver GlxII (bGlXII); from tissue; host or cells: bovine liver
Particulars: cited from earlier work.

Data set [5] concerns murine melanotic melanoma. The note with it: cited from earlier work; for efficacy relative to positive control adriamycin: at much higher dosages than adriamycin.
A further data set deals with human colon HT29 tumors. The note with it: cited from earlier work.
The subject of data set [6] is human prostate PC3 tumors. Particulars: cited from earlier work.
In data set [7] the target is T1, human GlxI. In words: Competitive inhibition constants (Kis) with human GlxI. It is filed as biochemical. As for the experimental part:
(§1) Competitive inhibition constants (Kis) of bivalent and monovalent enzyme inhibitors with human GlxI or yeast GlxI (yGlxI) were obtained from the change in the initial rates of product formation at various concentrations of the substrate in the presence or absence of the inhibitor. To a 1 ml cuvette containing 50 mM sodium phosphate buffer, pH 7.0, 0.5 mM EDTA, 25° C. and different concentrations of thiohemiacetal substrates with fixed concentrations of inhibitor was added approximately 0.02 U of enzyme. The initial rates of product formation were followed on the basis of the increase in absorbancy at 240 nm. Inhibition constants were obtained by fitting the initial rate data to the equation for competitive inhibition.

In data set [8] the target is T2, bovine liver GlxII. In words: Competitive inhibition constants (Kis) with bovine liver GlxII. It is filed as biochemical. Particulars: sodium phosphate buffer, 50 mM, pH 7, 25° C.; mean (±S.D.) duplicate; read-out: Ki, bGlxII.
The next data set deals with T3, yeast GlxI (Saccharomyces cerevisiae, UniProt P50107).
T3 sequence (P50107 1-326): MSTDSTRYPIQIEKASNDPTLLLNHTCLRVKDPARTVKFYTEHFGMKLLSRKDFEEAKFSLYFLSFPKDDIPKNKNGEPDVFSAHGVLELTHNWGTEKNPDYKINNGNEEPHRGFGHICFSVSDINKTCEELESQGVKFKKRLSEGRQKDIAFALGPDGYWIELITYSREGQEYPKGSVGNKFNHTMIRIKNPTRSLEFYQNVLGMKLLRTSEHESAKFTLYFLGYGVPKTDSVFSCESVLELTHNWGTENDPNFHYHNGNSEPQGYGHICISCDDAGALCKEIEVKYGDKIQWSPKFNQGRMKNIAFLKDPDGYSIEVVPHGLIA
In words: Competitive inhibition constants (Kis) with yeast GlxI. Format: biochemical. Particulars: sodium phosphate buffer, 50 mM, pH 7, 25° C.; mean (±S.D.) duplicate; read-out: Ki, yGlxI. As for the experimental part:
as §1

[9] abbreviates: glycerol (20%) in sodium phosphate buffer, pH 7, 25° C.
Where [10] appears, read: sodium phosphate buffer, 50 mM, pH 7, 25° C., mean (±S.D.) triplicate, read-out: Ki, hGlxI.

What is called kinact is the rate constant of inactivation at saturating inhibitor. A word on the Kd: it is the concentration at which binding is half-saturated. On to `N[C@@H](CCC(=O)N[C@@H](CSCC(=O)OCCCCOC(=O)CBr)C(=O)NCC(=O)O)C(=O)O`, for which, at human GlxI [1] (setting [9]), the “irreversible inactivation of human GlxI” value is “irreversibly inactivate human GlxI” and the kinact was 0.000267 s⁻¹. On human GlxI [1] (glycerol (20%) in sodium phosphate buffer, pH 7, 25° C., fit of kobsd vs concentration, read-out: Kd (dissociation constant) for inactivation of human GlxI), the Kd is 177000 ± 43000 nM.
Turning to `N[C@@H](CCC(=O)N[C@@H](CSCc1ccc(Br)cc1)C(=O)NCC(=O)O)C(=O)O` [(S-p-bromobenzyl)glutathione (BBG), (S-p-bromobenzyl)glutathione], the “efficacy against human lung tumors (DMS114) in mice” value in data set [2] (dosages of 100 mg/kg) is given as “effective”. The adverse side effects entry in data set [2] (during the 21 days of administration, 100 mg/kg) was “no evidence of adverse side effects”.
Broadly, the IC50 is the concentration at which inhibition is half-maximal. On to `CCOC(=O)CNC(=O)C(CSC(=O)N(O)c1ccc(Br)cc1)NC(=O)CCC(N)C(=O)OCC` (stereo not shown) [BHG(Et)2], for which, in data set [3], the IC50 is 16000 nM.
Take `N[C@@H](CCC(=O)N[C@@H](CSC(=O)N(O)c1ccc(Br)cc1)C(=O)NCC(=O)O)C(=O)O` [BHG, S—(N-p-bromophenyl-N-hydroxy-carbamoyl)glutathione]: the “substrate for bovine liver GlxII” value at bovine liver GlxII [4] is “substrates for bovine liver GlxII”.
As to `CCOC(=O)CNC(=O)[C@H](CSC(=O)N(O)c1ccc(Cl)cc1)NC(=O)CC[C@H](N)C(=O)OCC` [CHG(Et)2], the “efficacy relative to positive control adriamycin” value in data set [5] is “as effective as the positive control adriamycin”. Moreover, the “accumulation of drug in melanoma” value in data set [5] (following i.v. bolus administration) is listed as “significant accumulation of drug in melanoma”. In the data set with human colon HT29 tumors (bolus administration), the “efficacy against HT29 tumors” value is “efficacy was not observed”. Further, in the data set with human colon HT29 tumors (continuous i.v. infusion), the “potency relative to positive control vincristin” value is “as good as the positive control vincristin” and the side-effects result is recorded as “without any detectable side-effects”. In data set [3] (Kavarana et al 1999), the “toxicity to L1210 cells versus normal splenic lymphocytes in culture” value is reported as “significantly more toxic to murine leukemia L1210 cells than to normal splenic lymphocytes”. For the same molecule, the IC50 in [3] was 5000 nM. In addition, the haemopoetic toxicity result in data set [6] (PC3 tumor-bearing mice) is on record as “without the cisplatin-associated haemopoetic toxicity”. For the same molecule, in [6] (bolus i.v. administration), the “growth of PC3 tumors” value was “inhibited the growth” and the “potency relative to positive control cisplatin” value is given as “as good as the positive control cisplatin”. Also, the “effect on PC3 tumors” value in data set [6] (continuous infusion over 12 days) is “no effect was observed”.
As for `NC(CCC(=O)NC(CSC(=O)N(O)c1ccc(Cl)cc1)C(=O)NCC(=O)OC1CCCC1)C(=O)OC1CCCC1` (stereo not shown) [CHG(cyclopentyl)2], the “efficacy relative to positive control adriamycin” value in data set [5] is “as effective as the positive control adriamycin”.
Broadly, the Ki is a measure of affinity in units of concentration, obtained from inhibition or displacement. `NCCC(=O)NC(CCC(=O)NC(CSC(=O)N(O)c1ccc(Cl)cc1)C(=O)NCC(=O)O)C(=O)O` (stereo not drawn) [CHG(β-Ala)n, n = 1]: the inhibitory constant (Ki) on human GlxI [7] (setting [10]) came out at 330 ± 6 nM; at bovine liver GlxII [8], 1200 ± 12 nM.
As to `N[C@@H](CCC(=O)N[C@@H](CSC(=O)N(O)c1ccc(Cl)cc1)C(=O)NCC(=O)O)C(=O)O` [CHG, S—(N-p-chlorophenyl-N-hydroxycarbamoyl)glutathione, reference compound], the “protection of the enzyme from inactivation by BPG/BBG” value on human GlxI [1] (reversible inhibitor present) was “protects the enzyme from inactivation”. On human GlxI [7] (ratio of Ki yGlxI / hGlxI), the “binds more tightly to hGlxI than to yGlxI” value worked out at 78 fold. The “substrate for bovine liver GlxII” value at bovine liver GlxII [4] was “substrates for bovine liver GlxII”.
Regarding `CCOC(=O)CNC(=O)C(CSC(=O)N(O)c1ccccc1)NC(=O)CCC(N)C(=O)OCC` (stereo not shown) [PHG(Et)2], the IC50 in [3] is 63000 nM.
For `CN(O)C(=O)SC[C@H](NC(=O)CC[C@H](N)C(=O)O)C(=O)NCC(=O)O` [S—(N-methyl-N-hydroxycarbamoyl)glutathione], at bovine liver GlxII [4], the “substrate for bovine liver GlxII” value was “substrates for bovine liver GlxII”.
In the case of `N[C@@H](CCC(=O)N[C@@H](CSC(=O)N(O)c1ccccc1)C(=O)NCC(=O)O)C(=O)O` [S—(N-phenyl-N-hydroxycarbamoyl)glutathione], the “substrate for bovine liver GlxII” value at bovine liver GlxII [4] is reported as “substrates for bovine liver GlxII”.
On to `O=C(O)CNC(=O)[C@H](CSC(=O)N(O)c1ccc(Cl)cc1)NC(=O)CC[C@H](NC(=O)CCNC(=O)CCCCCCC(=O)NCCC(=O)N[C@@H](CCC(=O)N[C@@H](CSC(=O)N(O)c1ccc(Cl)cc1)C(=O)NCC(=O)O)C(=O)O)C(=O)O` [[CHG(β-Ala)n]2sub., n = 1, [CHG(β-ala)]2Suberate Diamide], for which the Ki was 70.1 ± 1.3 nM on human GlxI [7] (setting [10]), 3000 ± 200 nM on yeast GlxI and 35 ± 4 nM on bovine liver GlxII [8].
Turning to `O=C(O)CNC(=O)C(CSC(=O)N(O)c1ccc(Cl)cc1)NC(=O)CCC(NC(=O)CCNC(=O)CCNC(=O)CCCCCCC(=O)NCCC(=O)NCCC(=O)NC(CCC(=O)NC(CSC(=O)N(O)c1ccc(Cl)cc1)C(=O)NCC(=O)O)C(=O)O)C(=O)O` (stereo not drawn) [[CHG(β-Ala)n]2sub., n = 2, [CHG(β-ala)2]2suberate diamide], the Ki worked out at 75.9 ± 7.4 nM at human GlxI [7] (setting [10]) and 50 ± 5 nM at bovine liver GlxII [8].
As for `O=C(O)CNC(=O)C(CSC(=O)N(O)c1ccc(Cl)cc1)NC(=O)CCC(NC(=O)CCNC(=O)CCNC(=O)CCNC(=O)CCCCCCC(=O)NCCC(=O)NCCC(=O)NCCC(=O)NC(CCC(=O)NC(CSC(=O)N(O)c1ccc(Cl)cc1)C(=O)NCC(=O)O)C(=O)O)C(=O)O` (stereo not drawn) [[CHG(β-Ala)n]2sub., n = 3, [CHG(β-ala)3]2suberate diamide], the Ki at human GlxI [7] (setting [10]) is 84.1 ± 2.4 nM.
Consider `O=C(O)CNC(=O)C(CSC(=O)N(O)c1ccc(Cl)cc1)NC(=O)CCC(NC(=O)CCNC(=O)CCNC(=O)CCNC(=O)CCNC(=O)CCCCCCC(=O)NCCC(=O)NCCC(=O)NCCC(=O)NCCC(=O)NC(CCC(=O)NC(CSC(=O)N(O)c1ccc(Cl)cc1)C(=O)NCC(=O)O)C(=O)O)C(=O)O` (stereo not drawn) [[CHG(β-Ala)n]2sub., n = 4, [CHG (β-ala)4]2suberate diamide], for which the values for the Ki on human GlxI [7] (setting [10]) and at yeast GlxI were 59.6 ± 2 nM and 9000 ± 300 nM, respectively.
As to `O=C(O)CNC(=O)C(CSC(=O)N(O)c1ccc(Cl)cc1)NC(=O)CCC(NC(=O)CCNC(=O)CCNC(=O)CCNC(=O)CCNC(=O)CCNC(=O)CCCCCCC(=O)NCCC(=O)NCCC(=O)NCCC(=O)NCCC(=O)NCCC(=O)NC(CCC(=O)NC(CSC(=O)N(O)c1ccc(Cl)cc1)C(=O)NCC(=O)O)C(=O)O)C(=O)O` (stereo not drawn) [[CHG(β-Ala)n]2sub., n = 5, [CHG (β-ala)5]2suberate diamide], the Ki on human GlxI [7] (setting [10]) came to 7.5 ± 0.5 nM.
On to “N-(tri-beta-ala hydroxyethylamide ethylenediamine bis(hexanedioic acid O-carbonylethyl)S—(N-p-bromophenyl-N-hydroxy-carbamoyl)glutathione [polyBHG2-54]”, for which the Ki at human GlxI [7] (competitive inhibition, read-out: Ki values, human GlxI) turned out to be 0.3 nM.
Turning to “[CHG (β-ala)7]2suberate diamide [[CHG(β-Ala)n]2sub., n = 7]”, the Ki came to 0.97 ± 0.02 nM at human GlxI [7] (setting [10]), 4100 ± 500 nM at yeast GlxI and 79 ± 8 nM on bovine liver GlxII [8].
